From patent US20240398787A1, “TREATMENT OF MAJOR DEPRESSIVE DISORDER” (AbbVie Inc., priority 2021, published 2024)
Like-named read-outs stand apart in the source and are kept apart here.

Columns and labels:
[1] = test system: MDD patients who had inadequate response to ongoing antidepressant treatment; details: adjunctive, Durgam et al. 2016, cited from earlier work
[2] = test system: patients with major depressive disorder (MDD); experiment: Clinical Global Impressions-Severity (CGI-S) score, Clinical Study A; format: in vivo, human; details: MMRM; for LS mean change from baseline, CGI-S score / LSMD vs placebo, CGI-S score: week 6
Procedure: A global, multicenter, randomized, double-blind (DB), placebo-controlled, parallel-group, fixed-dose study compared cariprazine 1.5 mg/day and cariprazine 3 mg/day with placebo as an adjunctive treatment to ongoing ADT in outpatients with a diagnosis of MDD (via the Diagnostic and Statistical Manual of Mental Disorders, Fifth Edition [DSM-5]) having an inadequate response, as measured by the modified Antidepressant Treatment Response Questionnaire (ATRQ), to 1 to 3 antidepressants administered during the current episode at an adequate dose and adequate duration. Adequate dose was defined as a dose above the minimum labeled dose (per package insert). Adequate duration was defined as continuous ADT treatment for at least 6 weeks, with a minimum of 3 of 6 weeks above the minimal dose.
The study consisted of up to 14 days screening (with up to an additional 7 days of needed) and washout of prohibited medications followed by 6 weeks of double-blind (DB) treatment followed by a 4-week safety follow-up. At the end of the screening period, patients meeting the entry criteria for the study were randomized (1:1:1) to 1 of 3 double-blind treatment groups. Study treatment groups were: cariprazine 1.5 mg/day+antidepressant therapy and cariprazine 3 mg/day+antidepressant therapy. The control group received matching placebo+antidepressant therapy.
Dosage/Dose Regimen: Investigational product (cariprazine or placebo) in the form of capsules packaged in blister packs will be provided. No investigational product was administered during the screening/washout period; patients continued the same antidepressant and dose they were on at screening. Patients were taking more than one antidepressant at screening, regardless of the indication, discontinued all other antidepressants prior to baseline (Visit 2). During the double-blind treatment period (6 weeks), patients were administered 1 capsule orally per day in addition to their ongoing ADT. Patients in the 1.5 mg/day+ADT arm were administered 1.5 mg+ADT starting at Visit 2 (Week 0). Patients in the 3 mg/day+ADT arm were administered 1.5 mg+ADT starting at Visit 2 (Week 0) for 2 weeks and then titrate to 3 mg/day+ADT starting at Visit 4 (Week 2). Patients were supplied with identically appearing capsules of either cariprazine 1.5 mg, cariprazine 3 mg, or placebo.
A randomized, double-blind, placebo-controlled, multicenter trial with 759 participants was conducted in United States, Bulgaria, Estonia, Germany, Hungary, Ukraine, and the United Kingdom. Following a screening period of up to 14 days (with up to an additional 7 days if needed), which included a washout of prohibited psychotropic medications except for ongoing ADT, patients with a partial response to their antidepressant monotherapy were randomized into three treatment groups (1:1:1). One group received cariprazine 1.5 mg/d+ADT, one received cariprazine 3.0 mg/d+ADT, and one group received placebo+ADT. All participants randomized to cariprazine began on 1.5 mg/d; cariprazine 1.5 mg/d patients remained at that dosage, while cariprazine 3.0 mg/d patients received 1.5 mg/d for 2 weeks and increased to 3.0 mg/d on day 15.
The primary and secondary efficacy parameters were change from baseline to week 6 in Montgomery-Åsberg Depression Rating Scale (MADRS) total score and Clinical Global Impressions-Severity (CGI-S) score, respectively (screening, baseline, and weeks 1, 2, 4, and 6). Additional efficacy parameters (screening, baseline, and ≥1 double-blind visit) included: MADRS response (≥50% MADRS total score reduction) and remission (MADRS total score ≤10); change from baseline in HAMD-17 total score and Hamilton Anxiety Rating Scale (HAM-A) total score (32); and Clinical Global Impressions-Improvement (CGI-I) score and response (CGI-I score ≤2).
The CGI-S (Guy 1976) is a clinician-rated scale that measures the overall severity of a patient's illness in comparison with the severity in other patients the physician has observed. […]

Q: What does the source list for `CN(C)C(=O)N[C@H]1CC[C@H](CCN2CCN(c3cccc(Cl)c3Cl)CC2)CC1` [Cariprazine, trans-N-{4-[2-[4-(2,3-dichlorophenyl)piperazin-1-yl]ethyl]cyclohexyl}-N′,N′-dimethylurea]?
A: LSMD vs placebo, MADRS total score ([1]; 1-2 mg per day variable dosing): −0.9; LSMD vs placebo, MADRS total score ([1]; 2-4.5 mg per day variable dosing): −2.2; LS Mean (SE) change from baseline, CGI-S score ([2]; 1.5 mg/day + ADT, week 1): −0.3 (0.1); LSMD (95% CI) vs placebo + ADT, CGI-S score ([2]; 1.5 mg/day + ADT, week 1): −0.1 (−0.2, 0); LS Mean (SE) change from baseline, CGI-S score ([2]; 1.5 mg/day + ADT, week 2): −0.7 (0.1); LSMD (95% CI) vs placebo + ADT, CGI-S score ([2]; 1.5 mg/day + ADT, week 2): −0.1 (−0.2, 0.1); LS Mean (SE) change from baseline, CGI-S score ([2]; 1.5 mg/day + ADT, week 4): −1.1 (0.1); LSMD (95% CI) vs placebo + ADT, CGI-S score ([2]; 1.5 mg/day + ADT, week 4): −0.3 (−0.4, −0.1); LS mean change from baseline, CGI-S score ([2]; 1.5 mg/day + ADT): −1.4 (0.1); LSMD vs placebo, CGI-S score ([2]; 1.5 mg/day + ADT): −0.3 (−0.5, −0.1); LS Mean (SE) change from baseline, CGI-S score ([2]; 3 mg/day + ADT, week 1): −0.3 (0.1); LSMD (95% CI) vs placebo + ADT, CGI-S score ([2]; 3 mg/day + ADT, week 1): 0 (−0.1, 0.1); LS Mean (SE) change from baseline, CGI-S score ([2]; 3 mg/day + ADT, week 2): −0.6 (0.1); LSMD (95% CI) vs placebo + ADT, CGI-S score ([2]; 3 mg/day + ADT, week 2): 0 (−0.2, 0.1); LS Mean (SE) change from baseline, CGI-S score ([2]; 3 mg/day + ADT, week 4): −1.0 (0.1); LSMD (95% CI) vs placebo + ADT, CGI-S score ([2]; 3 mg/day + ADT, week 4): −0.1 (−0.3, 0.1); LS mean change from baseline, CGI-S score ([2]; 3 mg/day + ADT): −1.3 (0.1); LSMD vs placebo, CGI-S score ([2]; 3 mg/day + ADT): −0.2 (−0.4, 0)
